Test results: patent US20260374781A1, “NOVEL TRIHETEROCYCLIC COMPOUNDS” (IDENCE CO., LTD., priority 2022, published 2026)

Legend:
[1] = system: SW480 cells; test: Cell Proliferation Assay, SW480 (CellTiter-Glo 2.0 viability); type: cell-based; conditions: Homo sapiens; SW480 colon cancer (KRAS G12V mutation); 72 hours
Description: (§1) Test Example 3: Cell Proliferation Assay
(§2) Cell viability testing of test compounds in AsPC-1 pancreatic cancer (KRAS G12D mutation) or SW480 colon cancer (KRAS G12V mutation) cells for 72 hours
(§3) The reference compound Staurosporine was purchased from Sigma-Aldrich (Saint Louis, MI), and CellTiter-Glo® 2.0 Luminescent cell viability assay reagent (cat #G9243) was purchased from Promega (Madison, WI). AsPC-1 and SW480 cell lines were purchased from American Type Culture Collection (Manassas, VA). AsPC-1 cells were cultured with RPMI-1640 (ATCC, cat #30-2001) and SW480 cells were cultured with DMEM (ATCC cat #30-2002).
(§4) A medium supplemented with 10% FBS (Sigma-Aldrich, cat #F2442) and 100 µg/mL of penicillin-streptomycin (Sigma-Aldrich, cat #P4333) was used. Cells were cultured at 37 °C in a humidified atmosphere of 5% CO2 and 95% air.
(§5) • 1. The test compound and reference compound, Staurosporine were dissolved in DMSO solution to prepare 20 mM (test compound) and 10 mM (control compound, Staurosporine) in the Source Plate and diluted with DMSO to 3-fold and 10 doses. • 2. From the Source Plate, 10 volumes of 125 nL test compound or 25 nL reference compound were dispensed into wells of a 384-well culture plate (VWR, cat #82050-076) using Echo 655. • 3. 25 μL of culture medium including 2000 AsPC-1 or SW480 cells was dispensed into each 384-well cell culture plate. • 4. Cells were cultured with the compound for 72 hours at 37 °C and 5% CO2 conditions. • 5. 25 μL of CellTiter-Glo 2.0 reagent was added to each well of the plate. • 6. The contents were mixed for 2 minutes on an orbital shaker, and the luminescence signal was stabilized at room temperature for 15 minutes. • 7. Luminescence signals were measured with an Envision 2104 Multilabel Reader (PerkinElmer, Santa Clara, CA), and the number of surviving cells was determined through quantification of ATP present in each culture. • 8. IC50 values were calculated based on the Sigmoidal dose-response equation in the GraphPad Prism 4 program.

[2] = molecular target: T1, KRAS G12C (Homo sapiens, UniProt P01116, G12C); test: KRAS Nucleotide Exchange Assay (SOS1-mediated), G12C; type: biochemical; conditions: HTRF, 60 minutes preincubation, approximately 25 minutes reaction
T1 construct: GST-tagged KRAS WT or mutant protein (amino acids 2-169)
Source text: (§6) Test Example 1: KRAS Nucleotide Exchange Assay
(§7) Evaluation of the inhibitory effect of compounds on SOS1-mediated nucleotide exchange activity of KIRAS^WT, KRAS^G12D, KRAS^G12V, KRAS^G12C and KRAS^G13D mutants
(§8) The assay monitors SOS1 mediated exchange of KRAS bound unlabeled GDP to fluorescently labeled GTP. The detection is based on the transfer of energy between two fluorophores when they are in close proximity. Donor is the Tb cryptate labeled anti-GST antibody and acceptor is a DY-647P1 GTP.
(§9) • GST-tagged KRAS WT or mutant protein (amino acids 2-169), • SOS1 (amino acids 564-1049), • Labeled GTP (GTP-DY-647P1), • Assay Buffer (20 mM HEPES pH 7.4, 150 mM NaCl, 5 mM MgCl2, 1 mM DTT, 0.05% BSA, 0.0025% NP40)
(§10) • 1. KRAS protein was diluted with assay buffer to reach 1.5 times of the final concentration, then mixed with Tb cryptate anti-GST antibody and added at 10 μL to each assay well (all of the final concentration was 20 nM for KRAS^WT, KRAS^G12D, and KRAS^G12V) • 2. The compound was dissolved in DMSO and diluted to prepare 100 times of the final concentration. • 3. Compounds were dispensed into assay wells using an ECHO acoustic dispenser (Beckman), mixed gently with the KRAS/Ab mixture, and incubated for 60 minutes. • 4. SOS1 and labeled GTP were mixed, diluted to 3 times of the final concentration with assay buffer, and 5 μL of the solution was added to the assay well to initiate the reaction (final concentration of labeled GTP was […], final concentration of SOS1 was 7.5 nM in WT, 12.5 nM in G12D and 50 nM in G12V). Only assay buffer and labeled GTP were added to the blank well. • 5. The reaction was monitored at Ex/Em=(337/665; 337/620) using a Pherastar Plate Reader (BMG). • 6. HTRF signals were analyzed approximately 25 minutes after the start of the reaction (60 minutes reaction for G12V). • 7. Nucleotide exchange activity is expressed as a percentage difference compared to the DMSO reaction value, and the IC50 value was calculated based on the four-parameter logistic equation in GraphPad 4.0 software.

[3] = molecular target: T2, KRAS G12V (Homo sapiens, UniProt P01116, G12V); test: KRAS Nucleotide Exchange Assay (SOS1-mediated), G12V; type: biochemical; conditions: HTRF, 20 nM KRAS, 50 nM SOS1, 60 minutes preincubation, 60 minutes reaction
T2 construct: GST-tagged KRAS WT or mutant protein (amino acids 2-169)
Source text: as §6, §7, §8, §9, §10

[4] = molecular target: T3, KRAS G12D (Homo sapiens, UniProt P01116, G12D); test: KRAS Nucleotide Exchange Assay (SOS1-mediated), G12D; type: biochemical; conditions: HTRF, 20 nM KRAS, 12.5 nM SOS1, 60 minutes preincubation, approximately 25 minutes reaction
T3 construct: GST-tagged KRAS WT or mutant protein (amino acids 2-169)
Source text: as §6, §7, §8, §9, §10

[5] = system: AsPC-1 cells; test: Cell Proliferation Assay, AsPC-1 (CellTiter-Glo 2.0 viability); type: cell-based; conditions: AsPC-1 pancreatic cancer (KRAS G12D mutation)
Description: as §1, §2, §3, §4, §5

[6] = molecular target: T4, KRAS G13D (Homo sapiens, UniProt P01116, G13D); test: KRAS Nucleotide Exchange Assay (SOS1-mediated), G13D; type: biochemical; conditions: HTRF, 60 minutes preincubation, approximately 25 minutes reaction
T4 construct: GST-tagged KRAS WT or mutant protein (amino acids 2-169)
Source text: as §6, §7, §8, §9, §10

[7] = molecular target: T5, KRAS WT (Homo sapiens, UniProt P01116); test: KRAS Nucleotide Exchange Assay (SOS1-mediated), WT; type: biochemical; conditions: HTRF, 20 nM KRAS, 7.5 nM SOS1, 60 minutes preincubation, approximately 25 minutes reaction
T5 construct: GST-tagged KRAS WT or mutant protein (amino acids 2-169)
Source text: as §6, §7, §8, §9
• 1. […] The reaction was monitored at Ex/Em=(337/665; 337/620) using a Pherastar Plate Reader (BMG). • 6. HTRF signals were analyzed approximately 25 minutes after the start of the reaction (60 minutes reaction for G12V). • 7. Nucleotide exchange activity is expressed as a percentage difference compared to the DMSO reaction value, and the IC50 value was calculated based on the four-parameter logistic equation in GraphPad 4.0 software.

T3 sequence (P01116 2-169 isoform P01116-2 G12D): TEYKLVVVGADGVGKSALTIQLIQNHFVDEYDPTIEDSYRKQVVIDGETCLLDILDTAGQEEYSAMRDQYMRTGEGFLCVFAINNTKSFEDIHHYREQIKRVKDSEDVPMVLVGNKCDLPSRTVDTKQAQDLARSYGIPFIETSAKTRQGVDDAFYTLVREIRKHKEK
T4 sequence (P01116 2-169 isoform P01116-2 G13D): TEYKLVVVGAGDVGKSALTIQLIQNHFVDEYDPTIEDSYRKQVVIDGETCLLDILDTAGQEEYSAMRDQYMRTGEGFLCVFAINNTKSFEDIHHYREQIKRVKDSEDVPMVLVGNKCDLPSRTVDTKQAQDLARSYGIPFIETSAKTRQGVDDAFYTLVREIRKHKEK
T2 sequence (P01116 2-169 isoform P01116-2 G12V): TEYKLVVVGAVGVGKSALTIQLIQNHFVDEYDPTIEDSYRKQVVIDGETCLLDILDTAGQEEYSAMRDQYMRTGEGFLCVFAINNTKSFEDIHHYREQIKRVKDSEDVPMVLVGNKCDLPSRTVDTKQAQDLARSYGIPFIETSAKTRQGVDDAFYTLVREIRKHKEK
T1 sequence (P01116 2-169 isoform P01116-2 G12C): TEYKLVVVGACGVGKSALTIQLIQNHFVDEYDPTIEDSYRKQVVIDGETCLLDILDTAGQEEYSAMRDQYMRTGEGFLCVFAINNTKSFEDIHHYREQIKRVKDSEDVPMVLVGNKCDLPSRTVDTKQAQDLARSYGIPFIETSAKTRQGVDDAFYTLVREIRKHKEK
T5 sequence (P01116 2-169 isoform P01116-2): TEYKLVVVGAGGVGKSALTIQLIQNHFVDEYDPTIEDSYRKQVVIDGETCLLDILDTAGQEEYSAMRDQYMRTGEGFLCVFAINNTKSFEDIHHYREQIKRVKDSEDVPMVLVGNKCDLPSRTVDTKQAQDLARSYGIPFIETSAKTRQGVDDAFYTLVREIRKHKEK

CCc1c(F)ccc2cc(O)cc(-c3nc4c5c(nc(OC[C@@]67CCCN6C[C@H](F)C7)nc5c3F)N(C(C)c3cccnc3N)CCO4)c12 (mixture of isomers) [Example 14, 4-(10-(1-(2-aminopyridin-3-yl)ethyl)-4-fluoro-2-(((2R,7aS)-2-fluorotetrahydro-1H-pyrrolizin-7a(5H)-yl)methoxy)-9,10-dihydro-8H-7-oxa-1,3,6,10-tetraazacyclohepta[de]naphthalen-5-yl)-5-ethyl-6-fluoronaphthalen-2-ol]
IC50 [1]: < 1000 nM | IC50 [2]: 1.78 nM | IC50 [3]: 2.79 nM | IC50 [4]: 3.79 nM | IC50 ([5]; Homo sapiens, ASPC1, 72 h): < 1000 nM | IC50 [6]: 8.71 nM

C[C@H](c1cccnc1N)N1C[C@H](C)Oc2nc(-c3cc(O)cc4ccc(F)c(F)c34)c(F)c3nc(OC[C@@]45CCCN4C[C@H](F)C5)nc1c23 (stereo in doubt) [Example 10a, 4-((S)-10-((R)-1-(2-aminopyridin-3-yl)ethyl)-4-fluoro-2-(((2R,7aS)-2-fluorotetrahydro-1H-pyrrolizin-7a(5H)-yl)methoxy)-8-methyl-9,10-dihydro-8H-7-oxa-1,3,6,10-tetraazacyclohepta[de]naphthalen-5-yl)-5,6-difluoronaphthalen-2-ol]
IC50 [2]: 0.608 nM | IC50 [3]: 1.59 nM | IC50 [4]: 3.67 nM | IC50 ([5]; Homo sapiens, ASPC1, 72 h): > 10000 nM | IC50 [6]: 6.97 nM

CCc1c(F)ccc2cc(O)cc(-c3nc4c5c(nc(OC[C@@]67CCCN6C[C@H](F)C7)nc5c3F)N(CC3(N(C)C)CCC3)CCO4)c12 [Example 1, 4-(10-((1-(dimethylamino)cyclobutyl)methyl)-4-fluoro-2-(((2R,7aS)-2-fluorotetrahydro-1H-pyrrolizin-7a(5H)-yl)methoxy)-9,10-dihydro-8H-7-oxa-1,3,6,10-tetraazacyclohepta[de]naphthalen-5-yl)-5-ethyl-6-fluoronaphthalen-2-ol]
IC50 [3]: 33.4 nM | IC50 [4]: 1.26 nM | IC50 [7]: 6.22 nM | IC50 ([5]; Homo sapiens, ASPC1, 72 h): > 10000 nM

C#Cc1c(F)ccc2cc(O)cc(-c3nc4c5c(nc(OC[C@@]67CCCN6C[C@H](F)C7)nc5c3F)N(CC3(N(C)C)CCC3)CCO4)c12 [Example 2, 4-(10-((1-(dimethylamino)cyclobutyl)methyl)-4-fluoro-2-(((2R,7aS)-2-fluorotetrahydro-1H-pyrrolizin-7a(5H)-yl)methoxy)-9,10-dihydro-8H-7-oxa-1,3,6,10-tetraazacyclohepta[de]naphthalen-5-yl)-5-ethynyl-6-fluoronaphthalen-2-ol]
IC50 [4]: 1.34 nM | IC50 ([5]; Homo sapiens, ASPC1, 72 h): 1000 to 10000 nM

CCc1c(F)ccc2cc(O)cc(-c3nc4c5c(nc(OC[C@@]67CCCN6C[C@H](F)C7)nc5c3F)N(C(C)c3cccnc3N)C[C@H](C)O4)c12 (stereo partly drawn) [Example 3, 4-((8S)-10-(1-(2-aminopyridin-3-yl)ethyl)-4-fluoro-2-(((2R,7aS)-2-fluorotetrahydro-1H-pyrrolizin-7a(5H)-yl)methoxy)-8-methyl-9,10-dihydro-8H-7-oxa-1,3,6,10-tetraazacyclohepta[de]naphthalen-5-yl)-5-ethyl-6-fluoronaphthalen-2-ol]
IC50 [3]: 3.25 nM | IC50 [4]: 8.69 nM | IC50 ([5]; Homo sapiens, ASPC1, 72 h): > 10000 nM

CCc1c(F)ccc2cc(O)cc(-c3nc4c5c(nc(OC[C@@]67CCCN6C[C@H](F)C7)nc5c3F)N([C@H](C)c3cccnc3N)C[C@H](C)O4)c12 [Example 3a, 4-((S)-10-((R)-1-(2-aminopyridin-3-yl)ethyl)-4-fluoro-2-(((2R,7aS)-2-fluorotetrahydro-1H-pyrrolizin-7a(5H)-yl)methoxy)-8-methyl-9,10-dihydro-8H-7-oxa-1,3,6,10-tetraazacyclohepta[de]naphthalen-5-yl)-5-ethyl-6-fluoronaphthalen-2-ol]
IC50 [3]: 2.19 nM | IC50 [4]: 5.76 nM | IC50 ([5]; Homo sapiens, ASPC1, 72 h): > 10000 nM

CCc1c(F)ccc2cc(O)cc(-c3nc4c5c(nc(OC[C@@]67CCCN6C[C@H](F)C7)nc5c3F)N([C@@H](C)c3cccnc3N)C[C@H](C)O4)c12 [Example 3b, 4-((S)-10-((S)-1-(2-aminopyridin-3-yl)ethyl)-4-fluoro-2-(((2R,7aS)-2-fluorotetrahydro-1H-pyrrolizin-7a(5H)-yl)methoxy)-8-methyl-9,10-dihydro-8H-7-oxa-1,3,6,10-tetraazacyclohepta[de]naphthalen-5-yl)-5-ethyl-6-fluoronaphthalen-2-ol]
IC50 [3]: 62.1 nM | IC50 [4]: 176 nM

C#Cc1c(F)ccc2cc(O)cc(-c3nc4c5c(nc(OC[C@@]67CCCN6C[C@H](F)C7)nc5c3F)N(C(C)c3cccnc3N)CCO4)c12 (stereo partly drawn) [Example 13, 4-(10-(1-(2-aminopyridin-3-yl)ethyl)-4-fluoro-2-(((2R,7aS)-2-fluorotetrahydro-1H-pyrrolizin-7a(5H)-yl)methoxy)-9,10-dihydro-8H-7-oxa-1,3,6,10-tetraazacyclohepta[de]naphthalen-5-yl)-5-ethynyl-6-fluoronaphthalen-2-ol]
IC50 [1]: < 1000 nM | IC50 [2]: 0.609 nM | IC50 [3]: 1.38 nM | IC50 [4]: 1.65 nM | IC50 ([5]; 72 hours): < 1000 nM | IC50 [6]: 3.69 nM

CC(c1cccnc1N)N1CCOc2nc(-c3cc(O)cc4ccc(F)c(F)c34)c(F)c3nc(OC[C@@]45CCCN4C[C@H](F)C5)nc1c23 (stereo partly drawn) [Example 16, 4-(10-(1-(2-aminopyridin-3-yl)ethyl)-4-fluoro-2-(((2R,7aS)-2-fluorotetrahydro-1H-pyrrolizin-7a(5H)-yl)methoxy)-9,10-dihydro-8H-7-oxa-1,3,6,10-tetraazacyclohepta[de]naphthalen-5-yl)-5,6-difluoronaphthalen-2-ol]
IC50 [1]: < 1000 nM | IC50 [2]: 0.916 nM | IC50 [3]: 2.3 nM | IC50 [4]: 2.35 nM | IC50 ([5]; Homo sapiens, ASPC1, 72 h): < 1000 nM | IC50 [6]: 4.94 nM
